pEC50: −log10 of the molar value. The source made the active and inactive calls. The rule behind the calls is not given here.
The compounds below were run against Mu-type opioid receptor (Homo sapiens) (UniProt P35372) (assay: mu-delta opioid heterodimer formation enhancers – cell-based, luminescence, dose response, set 2, late-stage follow-up (AID 651762)). Details: luminescence complementation.
Sequence of Mu-type opioid receptor (Homo sapiens) (P35372 whole entry, looked up): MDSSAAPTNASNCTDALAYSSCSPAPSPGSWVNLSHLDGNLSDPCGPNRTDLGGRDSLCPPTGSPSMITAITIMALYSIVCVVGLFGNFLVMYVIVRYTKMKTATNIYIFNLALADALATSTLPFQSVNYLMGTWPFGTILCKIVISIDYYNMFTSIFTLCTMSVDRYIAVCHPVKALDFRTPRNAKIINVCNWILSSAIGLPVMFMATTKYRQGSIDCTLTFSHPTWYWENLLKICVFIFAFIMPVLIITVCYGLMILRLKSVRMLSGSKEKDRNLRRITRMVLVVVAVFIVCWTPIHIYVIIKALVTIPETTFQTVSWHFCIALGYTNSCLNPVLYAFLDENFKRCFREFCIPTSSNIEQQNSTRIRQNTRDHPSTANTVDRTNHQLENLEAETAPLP
In the case of `O=C(O)C1CCCCC1C(=O)Nc1ccc(CN2CCCCC2)cc1` (stereo not drawn), the EC50 was > 50 µM (inactive). `CCOC(=O)C1(CCc2ccccc2)CCN(Cc2ccc(C(=O)OC)cc2)CC1` was tested, and the EC50 was > 50 µM (inactive). In the case of `CCOC(=O)C1(CCOC)CCCN(Cc2ccc(NC(C)=O)cc2)C1` (stereo not drawn), the EC50 was > 50 µM (inactive). With `CCOC(=O)C1(Cc2ccc(OC)cc2)CCN(C(=O)c2ccc(N(C)C)cc2)CC1` the EC50 was > 50 µM (inactive). `CCOC(=O)C1(CCc2ccccc2)CCN(Cc2c(O)cccc2OC)CC1` showed a pEC50 of 6.22. In the case of `CCOC(=O)C1(CC2CC2)CCN(C(=O)c2ccc(N3CCCCC3)cc2)CC1`, the EC50 was > 50 µM (inactive). With `C=Cc1ccc(C(=O)N2CCC(CCc3ccccc3)(C(=O)OCC)CC2)cc1` the EC50 was > 50 µM (inactive). For `CCOC(=O)C1CCN(Cc2ccc(NC(C)=O)cc2)CC1`, the EC50 was > 50 µM (inactive). For `CCOC(=O)C1CCN(Cc2ccc(N(C)C)cc2)CC1`, the EC50 was > 50 µM (inactive). In the case of `CCOC(=O)C1(CCc2ccccc2)CCN(C(=O)Nc2ccc(C)cc2C)CC1`, the EC50 was > 50 µM (inactive). Compound `CCOC(=O)C1(Cc2ccccc2Cl)CCN(Cc2ccc(NC(C)=O)cc2)CC1` has a pEC50 of 6.40. `CCOC(=O)C1(CCc2ccccc2)CCN(Cc2ccc(OC)cc2)CC1` gave a pEC50 of 6.69. `CCOC(=O)C1(Cc2ccccc2)CCCN(Cc2ccc(NC(C)=O)cc2)C1` (stereo not drawn) was tested, and the EC50 was > 50 µM (inactive). `CCOC(=O)C1(CCOC)CCN(Cc2ccc(N(C)c3ccccc3)cc2)CC1` was tested, and the EC50 was > 50 µM (inactive). In the case of `CCOC(=O)C1(CCOC)CCN(Cc2ccc(NC(C)=O)cc2)CC1`, the EC50 was > 50 µM (inactive). For `CCOC(=O)C1(CCc2ccccc2)CCN(Cc2ccncc2)CC1`, the EC50 was > 50 µM (inactive). For `CCOC(=O)C1(CC2CC2)CCN(Cc2ccc(NC(C)=O)cc2)CC1`, the EC50 was > 50 µM (inactive). `CCOC(=O)C1CCN(CCC(=O)Nc2ccc(C)cc2)CC1` was tested, and the EC50 was > 50 µM (inactive). `CCOC(=O)C1(CCc2ccccc2)CCCN(Cc2ccc(N3CCNC3=O)cc2)C1` (stereo not drawn) was tested, and the EC50 was > 50 µM (inactive). For `CCOC(=O)C1CCCCN1Cc1ccc(NC(C)=O)cc1` (stereo not drawn), the EC50 was > 50 µM (inactive). `C=Cc1ccc(C(=O)N2CCC(CCCc3ccccc3)(C(=O)OCC)CC2)cc1` was tested, and the EC50 was > 50 µM (inactive). Compound `CC(=O)Nc1ccc(CN2CCCC(CO)(CCc3ccccc3)C2)cc1` (stereo not drawn) has a pEC50 of 5.29. With `CCOC(=O)C1(CCc2ccccc2)CCN(Cc2ccc(C#CC(C)(C)O)cc2)CC1` the EC50 was > 50 µM (inactive). `CCOC(=O)C1(Cc2ccccc2C)CCCN(Cc2ccc(NC(C)=O)cc2)C1` (stereo not drawn) was tested, and the EC50 was > 50 µM (inactive). With `CCOC(=O)C1(CCOc2ccccc2)CCCN(Cc2ccc(NC(C)=O)cc2)C1` (stereo not drawn) the EC50 was > 50 µM (inactive). In the case of `CCOC(=O)C1CCN(C(=O)c2ccc(N(C)C)cc2)CC1`, the EC50 was > 50 µM (inactive). `CCOC(=O)C1(CCc2ccccc2)CCN(Cc2ccc(O)cc2)CC1` was tested, and the EC50 was > 50 µM (inactive). For `CCOC(=O)C1(Cc2cccc(OC)c2)CCCN(Cc2ccc(NC(C)=O)cc2)C1` (stereo not drawn), the EC50 was > 50 µM (inactive).

— PubChem BioAssay AID651762 (The Scripps Research Institute Molecular Screening Center, 2012)
